Data taken from patent US9517221B2, “(2R)-2-propyloctanoic acid for functional brain disease” (ONO PHARMACEUTICAL CO., LTD., priority 2006, dated 2016).

Key:
[1] = system: olfactory bulbectomized rats; assay: Influence on hyperemotional score in olfactory bulbectomized rats (Test Example 4-2); type: in vivo, rat; settings: oral once a day for 7 days; present tense
Source text: Wistar male rats are used in the test. By fixing the head of each rat under pentobarbital sodium anesthesia to a brain stereotaxic apparatus, the head skin is incised and then holes are opened at right and left olfactory bulb regions using a dental drill to suck and remove the right and left olfactory bulbs using an aspirator. The head skin is stitched thereafter. In this connection, the suction and removal of olfactory bulbs are not carried out in the sham-operation group, and the head skin is stitched after opening holes at right and left olfactory bulb regions. The rats after extraction of the olfactory bulbs are put into a series of five stainless steel cages, each of which is partitioned into two parts with an acrylic board for individual rearing space, and individually reared for 2 weeks under a dark condition, and then subjected to the following tests of <4-2> and <4-3>.
The vehicle and test drug are orally administered once a day repeatedly for 7 days. The evaluation is carried out under a quiet environment, before the grouping and on the 1st and 7th days after administration of the test drug. The degree of irritability is scored in accordance with the evaluation criteria shown below, before the grouping and before the administration of 7 days test drug administration, and after 1 hour of the administration of test drug administration of 1 day and 7 days. […]

[2] = system: olfactory bulbectomized rats; assay: Anxiolytic behavior on elevated plus maze of olfactory bulbectomized rats; type: in vivo, rat; settings: for Time (seconds) stayed on closed arm (mean ± S. E.) / Time (seconds) stayed on open arm (mean ± S. E.): 5 minutes test 1 hour after 8 days administration
Description: SPF rats (Crlj: WI) were used in the test. The animal for olfactory bulbectomy was anesthetized with pentobarbital sodium (Nembutal R Injection, Dainippon Pharmaceutical, dose: 1 mL/kg (intraperitoneal administration)), and the head was fixed using a brain stereotaxic apparatus (ASI Instruments, Inc., NARISHIGE). After incising the head skin, holes are opened at right and left olfactory bulb regions of the skull using a dental drill (manufactured by […]), and the right and left olfactory bulbs were removed by sucking them using an aspirator connected to a tip-removed oral sonde, and the head skin was stitched thereafter. In this connection, in the case of the animals for sham-operation, anesthesia, brain fixation and head skin incision were carried out in the same manner as in the animals for olfactory bulbectomy, holes are opened at right and left olfactory bulb regions of the skull and the head skin was stitched without carrying out suction removal of the olfactory bulbs. The rats after olfactory bulbectomy were put into a series of five stainless steel cages, each of which was partitioned into two parts with an acrylic board for individual rearing space, and individually reared under a dark condition. The rats were subjected to the following tests of (2) and (3). • (a) Sham-operation group (12 animals); • (b) Vehicle control group (12 animals); • (c) 3 mg/kg administration group (12 animals) of (2R)-2-propyloctanoic acid; • (d) 10 mg/kg administration group (12 animals) of (2R)-2-propyloctanoic acid; • (e) 10 mg/kg administration group (12 animals) of Milnacipran hydrochloride. [Drug Administration] As shown below, drug solution or vehicle was administered once a day for 8 days, a total of 8 times, at a respective liquid dose of 5 mL/kg. • (a) Sham-operation group: vehicle (0.1% by volume Tween 80) aqueous solution; • (b) Vehicle control group: vehicle (0.1% by volume Tween 80) aqueous solution; • (c) 3 mg/kg administration group of (2R)-2-propyloctanoic acid: a drug solution in which (2R)-2-propyloctanoic acid was prepared to be 0.6 mg/mL with the vehicle; • (d) 10 mg/kg administration group of (2R)-2-propyloctanoic acid: a drug solution in which (2R)-2-propyloctanoic acid was prepared to be 2.0 mg/mL with the vehicle; • (e) 10 mg/kg administration group of milnacipran hydrochloride: a drug solution in which Milnacipran hydrochloride was prepared to be 2.3 mg/mL with the vehicle (Milnacipran itself is included in 2.0 mg/mL). (2) Examination of the Activity for Hyperemotional Reactivity <Evaluation Method> Evaluation of the anxiolytic behavior on an elevated plus maze was carried out once per animal for 5 minutes from 1 hour to 1 hour and 10 minutes after 8 days of the administration, in accordance with the following method. Each animal was softly put on a platform of elevated plus maze which is described later, toward one of the open arms. Thereafter, behavior of the animal was shot using a video camera (CCD-DC430, SONY) set up the elevated plus maze, and the images were analyzed by a video image behavior analyzing device (Etho Vision, manufactured by Noldus). Additionally, the images from the video camera were recorded and handled as reference data. In this connection, when the animal fell, it was regarded as staying on the open arm, and the animal was quickly returned to the place or the open arm where it was present just before the falling. The evaluation was carried out on the respective items shown by A to H (A: frequency of approach to the open arm, B: frequency of approach to the closed arm, C: frequency of approach to the platform, D: stayed time (second) on the open arm, E: stayed time (second) on the closed arm, F: stayed time (second) on the platform, G: defecation frequency on the open arm, platform and closed arm, and H: urination frequency on the open arm, platform and closed arm), by measuring A to F using the video image behavior analyzing device, and by measuring G and H after completion of the measurement. […]

[3] = system: Wistar male rats; assay: Rat learned helplessness test (Test Example 3); type: in vivo; settings: oral once a day for 6 days and 1 hour before shock training on 7th day; present tense
Description: A learned helplessness test is carried out using a two way type shuttle box which is divided into two by a gate which can be opened and closed so that shift to right and left is possible. Wistar male rats are used in the test, and a shock training is carried out on the 1st day of the test. The shock training is carried out by putting the rats in the apparatus under an inescapable condition by closing the gate, and applying an electric shock (10 seconds×90 times, intervals of 2 seconds) through a floor grid. In this connection, the rats of the control group are not treated with the electric shock and allowed to stay free in the apparatus for the same period of time. An escape test is carried out after 24 hours of the shock training. The escape test is carried out by putting the rats in the apparatus under an escapable condition by opening the gate, and after 5 minutes of adaptation, by applying a light stimulation and a sound stimulation (conditional stimulation) simultaneously for 5 seconds and subsequently applying an electric shock (no conditional stimulation) for 10 seconds. By regarding a case of no escaping and continuously receiving the electric shock as escape failure, this trial is repeated 40 times (intervals of 5 seconds), and behavior of the rats is analyzed by a behavior analysis software (MED-PC Version 1.16). […]

[4] = dose 3 mg/kg once a day for 8 days
[5] = dose 10 mg/kg once a day for 8 days

CCCCCC[C@@H](CCC)C(=O)O [(2R)-2-propyloctanoic acid]
Development of hyperemotionality versus vehicle group [1]: inhibits development of hyperemotionality
Time (seconds) stayed on closed arm (mean ± S. E.) [2, 4]: 188.7 ± 19.7 s
Time (seconds) stayed on open arm (mean ± S. E.) [2, 4]: 73.7 ± 17.5 s
Time (seconds) stayed on closed arm (mean ± S. E.) [2, 5]: 209.4 ± 24.1 s
Time (seconds) stayed on open arm (mean ± S. E.) [2, 5]: 57.7 ± 22.1 s
Anxiolytic behavior versus vehicle control group ([2]; olfactory bulbectomized rats, elevated plus maze, result in words): inhibited the anxiolytic behavior
Number of escape failures versus vehicle treating group [3]: inhibits increase of the number of escape failures
